Experiment [1] concerns HEK293. The experiment can be described thus: PMA/Ionomycin-induced IL-8 production in HEK293- NF-kB-Luc stable cells. [Related pubchem assays: 1299, 1295, 1375, 1287, 1281, 1293, 1291, 1289, 1280, 465, 1364, 1282, 1372, 1365, 1367, 1366, 1266, 1269, 1373, 1292, 1290, 1302, 1371, 1283, 1271, 1294, 1374, 1368, 1369 ]. The conditions noted are these: Homo sapiens. Type of experiment: functional, cell-based.

Experiment [2] addresses Luciferin 4-monooxygenase (Photinus pyralis, UniProt P08659). In words: In vitro luciferase assay using purified luciferase. [Related pubchem assays: 1299, 1270, 1295, 1375, 1287, 1281, 1293, 1291, 1289, 1280, 465, 1364, 1282, 1372, 1365, 1370, 1367, 1366, 1266, 1373, 1292, 1290, 1302, 1371, 1283, 1271, 1294, 1374, 1368, 1369 ].
Experiment [3] relates to HEK293. In words: Cytotoxicity assay in HEK293 cells. [Related pubchem assays (depositor defined):AID1266, AID1269, AID1270, AID1271, AID1280, AID1281, AID1282, AID1283, AID1287, AID1289, AID1290, AID1291, AID1292, AID1293, AID1294, AID1295, AID1299, AID1302, AID1364, AID1365, AID1366, AID1367, AID1369, AID1370, AID1371, AID1372, AID1373, AID1374, AID1375, AID1384 …. Type of experiment: functional, cell-based. The conditions noted are these: Homo sapiens.

The subject of experiment [4] is HEK293. The experiment can be described thus: TNF Induced NF-kB Luciferase in 293-NF-kB-Luc Stable Cells. [Related pubchem assays: 1266, 1299, 1269, 1373, 1292, 1290, 1302, 1371, 1283, 1270, 1295, 1271, 1375, 1294, 1374, 1281, 1293, 1291, 1289, 1280, 465, 1368, 1364, 1282, 1372, 1365, 1369, 1370, 1367, 1366 ]. Type of experiment: functional, cell-based. The conditions noted are these: Homo sapiens.

Experiment [5] has as its system HEK293. In words: PMA/Ionomycin induced NF-kB luciferase assay in 293- NF-kB-Luc stable cells. [Related pubchem assays: 1299, 1270, 1295, 1375, 1287, 1281, 1293, 1291, 1289, 1280, 465, 1364, 1282, 1372, 1365, 1370, 1367, 1366, 1269, 1373, 1292, 1290, 1302, 1371, 1283, 1271, 1294, 1374, 1368, 1369 ]. Particulars: Homo sapiens. Type of experiment: functional, cell-based.

The target of experiment [6] is Lysosomal acid glucosylceramidase (Homo sapiens, UniProt P04062). The experiment can be described thus: Dose response cell-based high throughput screening assay to identify enhancers of beta-glucosidase activity. [Related pubchem assays: 784 ]. Type of experiment: functional.
Lysosomal acid glucosylceramidase, sequence (P04062 whole entry): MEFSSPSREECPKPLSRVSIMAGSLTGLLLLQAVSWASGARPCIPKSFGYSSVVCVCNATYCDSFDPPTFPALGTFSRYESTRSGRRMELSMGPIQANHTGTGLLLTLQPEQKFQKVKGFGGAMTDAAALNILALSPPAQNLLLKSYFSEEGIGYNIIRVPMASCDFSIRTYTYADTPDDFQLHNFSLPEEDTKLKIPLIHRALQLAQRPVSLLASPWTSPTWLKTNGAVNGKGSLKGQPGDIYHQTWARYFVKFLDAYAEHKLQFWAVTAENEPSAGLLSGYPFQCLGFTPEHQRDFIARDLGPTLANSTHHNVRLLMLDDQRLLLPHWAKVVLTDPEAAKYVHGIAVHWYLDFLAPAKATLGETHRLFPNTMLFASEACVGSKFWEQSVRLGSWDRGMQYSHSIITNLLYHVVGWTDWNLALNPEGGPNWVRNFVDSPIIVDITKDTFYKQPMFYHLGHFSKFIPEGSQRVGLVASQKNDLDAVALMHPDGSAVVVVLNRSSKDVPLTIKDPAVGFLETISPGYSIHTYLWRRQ
The target in experiment [7] is Potassium voltage-gated channel subfamily KQT member 2 (Rattus norvegicus, UniProt O88943). In words: Mode of action assay - current amplitude concentration response for derivatives of ZTZ240, a potentiator of KCNQ2 potassium channels. [Related pubchem assays: 2258 (Summary assay for the KCNQ2 potentiators.), 2239 (Primary HTS assay for KCNQ2 potentiators with 305606 compounds tested, and 1644 are found to be active.)]. Type of experiment: functional.
Potassium voltage-gated channel subfamily KQT member 2, sequence (O88943 whole entry): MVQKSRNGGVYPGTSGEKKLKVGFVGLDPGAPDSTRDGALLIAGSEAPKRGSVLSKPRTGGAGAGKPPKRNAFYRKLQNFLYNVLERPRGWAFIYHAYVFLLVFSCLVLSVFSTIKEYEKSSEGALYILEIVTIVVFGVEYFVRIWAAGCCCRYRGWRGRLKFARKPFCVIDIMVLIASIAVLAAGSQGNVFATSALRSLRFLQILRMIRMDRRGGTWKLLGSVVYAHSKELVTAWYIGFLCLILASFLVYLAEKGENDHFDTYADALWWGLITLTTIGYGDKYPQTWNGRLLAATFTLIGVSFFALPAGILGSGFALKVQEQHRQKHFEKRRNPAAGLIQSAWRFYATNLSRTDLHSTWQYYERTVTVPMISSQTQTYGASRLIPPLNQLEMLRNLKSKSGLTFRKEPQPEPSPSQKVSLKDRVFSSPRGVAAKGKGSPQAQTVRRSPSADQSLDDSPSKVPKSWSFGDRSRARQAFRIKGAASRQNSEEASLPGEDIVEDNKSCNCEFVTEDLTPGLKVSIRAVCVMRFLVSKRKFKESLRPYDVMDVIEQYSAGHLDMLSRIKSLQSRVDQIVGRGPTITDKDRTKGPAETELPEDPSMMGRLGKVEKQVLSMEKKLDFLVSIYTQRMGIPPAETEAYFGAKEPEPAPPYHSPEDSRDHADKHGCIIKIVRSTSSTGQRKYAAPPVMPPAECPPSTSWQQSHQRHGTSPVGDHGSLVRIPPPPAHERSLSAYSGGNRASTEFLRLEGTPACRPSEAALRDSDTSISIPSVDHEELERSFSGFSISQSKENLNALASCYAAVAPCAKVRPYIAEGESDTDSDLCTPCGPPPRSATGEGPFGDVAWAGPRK

The target in experiment [8] is NS3 (Hepatitis C virus, UniProt A3EZJ3). The experiment can be described thus: PubChem AID 2173. More on the design: species or system Hepacivirus hominis.
NS3, sequence (A3EZJ3 whole entry): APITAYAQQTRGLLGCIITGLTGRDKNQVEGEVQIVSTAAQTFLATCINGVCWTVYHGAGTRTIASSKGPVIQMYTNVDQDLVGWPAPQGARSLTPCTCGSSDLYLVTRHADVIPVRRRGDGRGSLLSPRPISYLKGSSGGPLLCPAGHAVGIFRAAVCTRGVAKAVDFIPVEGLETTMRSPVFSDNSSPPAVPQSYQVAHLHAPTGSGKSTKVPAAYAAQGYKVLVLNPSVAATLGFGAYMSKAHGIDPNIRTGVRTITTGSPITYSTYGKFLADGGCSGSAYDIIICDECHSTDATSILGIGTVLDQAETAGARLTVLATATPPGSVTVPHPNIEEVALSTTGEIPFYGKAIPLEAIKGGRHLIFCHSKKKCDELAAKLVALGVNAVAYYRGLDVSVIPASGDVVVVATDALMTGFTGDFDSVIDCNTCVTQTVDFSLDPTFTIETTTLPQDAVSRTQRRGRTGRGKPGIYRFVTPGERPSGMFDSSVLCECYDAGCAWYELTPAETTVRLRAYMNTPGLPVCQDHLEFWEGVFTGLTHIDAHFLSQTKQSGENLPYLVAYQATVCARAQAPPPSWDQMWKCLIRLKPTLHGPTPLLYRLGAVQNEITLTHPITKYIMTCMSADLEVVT
In experiment [9] the target is T1, Short transient receptor potential channel 4 (Mus musculus, UniProt Q9QUQ5).
T1 sequence (Q9QUQ5 whole entry): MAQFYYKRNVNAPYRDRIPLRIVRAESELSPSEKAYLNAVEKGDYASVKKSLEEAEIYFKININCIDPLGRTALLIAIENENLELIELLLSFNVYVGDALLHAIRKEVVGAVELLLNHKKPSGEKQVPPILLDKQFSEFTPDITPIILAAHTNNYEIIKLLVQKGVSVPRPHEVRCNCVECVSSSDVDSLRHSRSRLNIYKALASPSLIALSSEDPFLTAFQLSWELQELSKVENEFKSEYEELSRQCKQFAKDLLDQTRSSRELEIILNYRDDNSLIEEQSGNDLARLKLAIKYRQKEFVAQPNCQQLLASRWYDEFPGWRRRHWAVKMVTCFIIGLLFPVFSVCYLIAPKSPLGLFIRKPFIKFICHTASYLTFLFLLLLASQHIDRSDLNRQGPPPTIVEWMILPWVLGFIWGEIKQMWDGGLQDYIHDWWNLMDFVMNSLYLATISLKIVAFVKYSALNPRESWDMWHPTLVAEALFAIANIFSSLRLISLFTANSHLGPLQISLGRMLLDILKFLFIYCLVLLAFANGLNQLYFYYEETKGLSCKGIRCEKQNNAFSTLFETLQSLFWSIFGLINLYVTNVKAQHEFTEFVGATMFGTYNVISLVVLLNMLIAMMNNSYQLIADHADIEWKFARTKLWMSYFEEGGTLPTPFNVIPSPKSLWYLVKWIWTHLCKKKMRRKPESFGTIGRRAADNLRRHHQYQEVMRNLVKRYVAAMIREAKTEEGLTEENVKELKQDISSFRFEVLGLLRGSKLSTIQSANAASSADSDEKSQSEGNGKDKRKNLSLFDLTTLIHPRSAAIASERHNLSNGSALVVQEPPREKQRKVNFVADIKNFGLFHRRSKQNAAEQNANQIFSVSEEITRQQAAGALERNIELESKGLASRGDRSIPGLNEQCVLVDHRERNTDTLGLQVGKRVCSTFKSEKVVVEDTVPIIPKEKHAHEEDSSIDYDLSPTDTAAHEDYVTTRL
The experiment can be described thus: calcium entry via TRPC4 opening agents – cell-based, HEK293 TRPC4/mu-opioid, Fluo-4 calcium, dose response (AID 434937). Type of experiment: functional.

Experiment [10] concerns the target Acyl-homoserine lactone acylase PvdQ (Pseudomonas aeruginosa (strain LESB58), UniProt Q9I194). The experiment can be described thus: PvdQ acylase enzyme activity blockers – biochemical, fluorescence, plate reader and imaging, cherry-picks, dose response (AID 493231).

Activity calls are given as the source filed them. Where only a bound is given, the exact number is not on record here.

Acyl-homoserine lactone acylase PvdQ, sequence (Q9I194 24-193 limits assumed): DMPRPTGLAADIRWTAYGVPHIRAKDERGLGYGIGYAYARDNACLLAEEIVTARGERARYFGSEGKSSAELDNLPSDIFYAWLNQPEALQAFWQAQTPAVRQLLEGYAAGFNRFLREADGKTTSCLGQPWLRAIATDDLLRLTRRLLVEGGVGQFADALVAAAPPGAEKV
Acyl-homoserine lactone acylase PvdQ, sequence (Q9I194 217-762 limits assumed): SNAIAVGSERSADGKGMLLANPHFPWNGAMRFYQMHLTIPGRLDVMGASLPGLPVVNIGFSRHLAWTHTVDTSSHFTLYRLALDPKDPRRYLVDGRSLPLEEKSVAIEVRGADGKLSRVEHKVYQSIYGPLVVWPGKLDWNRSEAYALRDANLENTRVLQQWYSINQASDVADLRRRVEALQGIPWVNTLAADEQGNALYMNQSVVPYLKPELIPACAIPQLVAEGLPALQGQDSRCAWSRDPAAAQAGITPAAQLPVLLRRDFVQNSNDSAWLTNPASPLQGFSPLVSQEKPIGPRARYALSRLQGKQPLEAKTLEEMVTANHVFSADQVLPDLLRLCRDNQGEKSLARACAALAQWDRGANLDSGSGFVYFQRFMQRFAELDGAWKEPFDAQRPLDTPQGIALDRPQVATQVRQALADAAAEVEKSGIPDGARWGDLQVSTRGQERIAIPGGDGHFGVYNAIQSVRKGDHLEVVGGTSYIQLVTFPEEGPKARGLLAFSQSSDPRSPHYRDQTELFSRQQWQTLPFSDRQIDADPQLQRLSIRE
Luciferin 4-monooxygenase, sequence (P08659 whole entry): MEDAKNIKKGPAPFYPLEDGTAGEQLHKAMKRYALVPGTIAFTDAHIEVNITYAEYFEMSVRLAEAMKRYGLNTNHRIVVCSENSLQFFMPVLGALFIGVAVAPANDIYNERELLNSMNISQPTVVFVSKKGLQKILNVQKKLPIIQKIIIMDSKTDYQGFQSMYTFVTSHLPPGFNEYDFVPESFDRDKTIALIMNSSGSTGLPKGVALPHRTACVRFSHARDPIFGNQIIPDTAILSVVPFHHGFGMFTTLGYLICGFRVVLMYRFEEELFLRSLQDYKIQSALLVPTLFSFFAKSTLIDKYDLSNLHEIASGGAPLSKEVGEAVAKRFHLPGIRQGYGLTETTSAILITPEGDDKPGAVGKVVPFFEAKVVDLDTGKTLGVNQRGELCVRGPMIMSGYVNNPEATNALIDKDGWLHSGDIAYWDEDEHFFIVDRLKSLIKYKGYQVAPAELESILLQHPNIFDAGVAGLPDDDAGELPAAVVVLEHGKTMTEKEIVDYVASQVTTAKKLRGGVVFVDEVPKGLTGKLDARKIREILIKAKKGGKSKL

As to `COc1cc(NC(=O)c2cccc3c2C(=O)N(Cc2cccnc2)C3)cc(OC)c1OC`, the EC50 – broadly, the concentration giving half of the maximal effect – in experiment [1] is 13.9 µM (not active); in [2], > 8 µM (not active); in experiment [3] it was > 8 µM (inactive); in experiment [4], > 8 µM (not active); in [5] it was 0.744 µM (active).

Consider `C=CCSC1=N/C(=C\c2ccsc2)C(=O)S1`, for which the EC50 in experiment [6] is > 50 µM (not active).

In the case of `O=C(Nc1ccc(Cl)nc1)c1ccc(F)c(F)c1`, in experiment [7], the EC50 is 14.4 µM (active).

With `Cc1occc1C(=O)NNC(=S)NC(=O)COc1ccc(Cl)cc1Cl`, in [8], the IC50 – broadly, the concentration at which inhibition is half-maximal – was 15.2 µM (not active). Moreover, the concentration giving a half-maximal response (EC50) in experiment [9] is 5.96 µM (active).

In the case of `N#CC(c1ccc(Cl)cc1)c1ccc(Cl)nn1` (stereo not given), the AC50 (usually the concentration at which the activity in the assay is half-maximal) in [10] is 0.991 µM (active).

For the origin of these results see ChEMBL document CHEMBL1201862, “PubChem BioAssay data set” (2004).
